Reference: patent US20020102688A1, “Methods and products for the synthesis of oligosaccharide structures on glycoproteins, glycolipids, or as free molecules, and for the isolation of cloned genetic sequences that determine these structures” (The Regents of the University of Michigan, priority 1990, published 2002)

Target: T1, Fuc-TVI (Homo sapiens, UniProt P51993)
T1 construct: a 1.2 kb fragment containing the entire open reading frame was generated by the polymerase chain reaction; expressed in transfected cells; host or cells: COS-1 cells, transient transfection, 1% Triton X-100 extract
T1 sequence (P51993 1-359): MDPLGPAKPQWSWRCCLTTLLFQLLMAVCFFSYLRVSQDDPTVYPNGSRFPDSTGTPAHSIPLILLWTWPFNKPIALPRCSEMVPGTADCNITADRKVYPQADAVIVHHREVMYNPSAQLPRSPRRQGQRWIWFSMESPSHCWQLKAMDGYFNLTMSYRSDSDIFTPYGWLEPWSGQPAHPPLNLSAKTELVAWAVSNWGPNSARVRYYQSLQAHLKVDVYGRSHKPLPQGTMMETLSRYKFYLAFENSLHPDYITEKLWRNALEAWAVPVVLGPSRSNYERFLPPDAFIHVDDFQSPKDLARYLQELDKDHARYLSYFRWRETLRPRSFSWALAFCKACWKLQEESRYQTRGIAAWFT
Test: Fucosyltransferase assay, extracts of COS-1 cells transfected with pCDNA1-Fuc-TVI
Format: biochemical
Conditions: for utilization as acceptor substrate by Fuc-TVI (in words): extracts of COS-1 cells transfected with pCDNA1-Fuc-TVI; for Relative Activity (%) with Fuc-TVI: relative product formation rate, N-acetyllactosamine = 100, acceptor 20 mM (2-fucosyllactose 5 mM), GDP-[14C]fucose 3 μM, transfected COS-1 cell extract
Procedure: Cell extracts containing 1% Triton X-100 were prepared from transfected COS-1 cells, using procedures described previously (Kukowska-Latallo et al, Genes Devel., 4:1288-1303, 1990). Fucosyltransferase assays were performed in a total volume of 20 μl, and contained 50 mM sodium cacodylate, pH 6.2, 5 mM ATP, 10 mM fucose, 20 mM MnCl2, 3 μM GDP-^14C-fucose, and 5 μl (30 μg protein) of cell extract. Acceptor substrates were added to a final concentration of 20 mM. Reactions were incubated at 37° C. for 1 hour and terminated by addition of 20 μl ethanol, followed by addition of 600 μl of distilled water. An aliquot of each reaction (50 μl) was subjected to scintillation counting to determine total radioactivity in the reaction. Another aliquot (200 μl) was applied to a column containing 400 μl of Dowex 1X2-400, formate form (Rajan et al, J. Biol. Chem., 264:11158-11167, 1989). The flow through fraction, and […] of a subsequent water elution, were collected and pooled, and an aliquot was subjected to scintillation counting to quantitate incorporation of radioactive fucose into neutral product.
Table 2 presents the relative product formation rates obtained with low molecular weight acceptor substrates using cell extracts containing recombinant human α(1,3)fucosyltransferases expressed in transfected COS-1 cells, as described in the preceding sections. Fucosyltransferase assays were performed as described in detail in Lowe et al, J. Biol. Chem., (1991), 266:17467-17477; Weston et al, J. Biol. Chem. (1992), 267:4152-4160; and Kukowska-Latallo et al, Genes. Devel., (1990), 4:1288-1303. For each enzyme, the same extract was used, with saturating amounts of each acceptor oligosaccharide (20 mM, except for 2′-fucosylactose which was used at 5 mM), and GDP-^14C]fucose was present at 3 μM. Reaction times and enzyme amounts were adjusted to ensure a linear rate of product formation (less than 15% of the GDP-fucose substrate consumed). Products were separated by column chromatography and quantitated by liquid scintillation counting, and their structures were confirmed by high performance liquid chromatography, as described in Lowe et al, J. Biol. Chem., (1991), 266:17467-17477; Weston et al, J. Biol. Chem. (1992), 267:4152-4160; and Kukowska-Latallo et al, Genes. Devel., (1990), 4:1288-1303.

utilization as acceptor substrate by Fuc-TVI (in words) | Relative Activity (%) with Fuc-TVI [%] | Compound
not utilized | <1 | CC(=O)N[C@@H]1[C@@H](O[C@@H]2O[C@H](CO)[C@H](O)[C@H](O)[C@H]2O)[C@H](O)[C@@H](CO)O[C@@H]1O [lacto-N-biose I]
did not function as acceptor substrates | <1 | OC[C@H]1O[C@@H](O[C@H]2[C@H](O)[C@@H](O)C(O)O[C@@H]2CO)[C@H](O)[C@@H](O)[C@H]1O (stereo partly shown) [lactose]
efficiently utilized | 110 | CC(=O)NC1C(O)OC(CO)C(OC2OC(CO)C(O)C(OC3(C(=O)O)CC(O)C(NC(C)=O)C(C(O)C(O)CO)O3)C2O)C1O (stereo not drawn) [α(2,3)sialyllactosamine, NeuAcα(2→3)Galβ(1→4)GlcNAc]
did not function as acceptor substrates | <1 | Fucα(1,2)Galβ(1,4)Glc [2-fucosyllactose]

Compound | utilization as acceptor substrate by Fuc-TVI (in words) | Relative Activity (%) with Fuc-TVI [%]
CC(=O)N[C@H]1C(O)O[C@H](CO)[C@@H](O[C@@H]2O[C@H](CO)[C@H](O)[C@H](O)[C@H]2O)[C@@H]1O (stereo partly shown) [N-acetyllactosamine] | utilized | 100
